Assay [1] has as its system Plasmodium falciparum 3D7 strain. As to the kind of experiment: In vitro susceptibility assay of P. falciparum, SYBR Green I. Format: cell-based. Conditions: for IC50: Plasmodium falciparum; for antimalarial activity (in words): P. falciparum 3D7. As for the experimental part: The principle of the in vitro susceptibility test to malaria is to assess the degree of development of parasites P. falciparum in the presence of different concentrations of the compounds.
In the present disclosure, the antimalarial activity was also evaluated. Each compound was lyophilized and solubilized in DMSO (Sigma-Aldrich) to obtain a final concentration of 5 mM. Some intermediate dilutions were made to achieve the final concentration of 10 μM in the first well of the plate.
In an embodiment, the culture of P. falciparum was carried out as follows. […] Parasites were cultivated at 5% hematocrit, 37° C. and atmosphere with 5% of CO2, human serum was replaced with 0.5% AlbuMAXII (Invitrogen™) in the culture medium. Synchronized cultures were obtained by treatments with a 5% (m/v) solution of D-sorbitol (Sigma-Aldrich).
In the present disclosure, the in vitro susceptibility assay of P. falciparum using SYBR Green I was carried out as follows. […] Briefly, early ring stage parasites (>80% of rings, 3% haematocrit and 1% parasitaemia) were tested in duplicate in a 96-well plate and incubated with the compounds for 48 h (37° C., 5% CO2), parasite growth was assessed with SYBR Green I (Thermo Fisher Scientific). Each compound was tested in concentrations ranging from 10 to 0.001 μM. Fluorescence intensity was measured with a microplate reader with excitation and emission wavelengths of 485 and 535 nm, respectively, and analysed by nonlinear regression using GraphPad Prism 5 demo version to determine

The test system of assay [2] is Staphylococcus aureus ATCC 29213. The experiment in a line: MIC/MBC broth dilution (CLSI), S. aureus reference strain. Format: cell-based. Conditions: S. aureus ATCC 29213; for MBC / MIC: Staphylococcus aureus, ATCC29213; for MIC: read-out: MIC. The text has this: (§1) In the present disclosure, two Gram-positive—Staphylococcus aureus ATCC 29213 and Enterococcus faecalis ATCC […] and two Gram-negative—Escherichia coli ATCC 25922 and Pseudomonas aeruginosa ATCC 27853—reference bacterial strains were used. When it was possible to determine a minimal inhibitory concentration (MIC) value for these strains, clinically relevant strains were also used. These included methicillin-resistant S. uareus (MRSA) 66/1, isolated from public buses, as well as a isolate sensitive to the most commonly used antibiotic families (S. aureus 40/61/24) and two vancomycin-resistant Enterococcus (VRE) strains isolated from river water, E. faecalis B3/101 and E. faecalis A5/102, which is sensitive to ampicillin. Frozen stocks of all strains were grown on Mueller-Hinton agar (MH-BioKar Diagnostics, Allone, France) at 37° C. for 24 h. All bacterial strains were sub-cultured on MH agar and incubated overnight at 37° C. before each assay, in order to obtain fresh cultures.
(§2) An initial screening of the antibacterial activity of the compounds was performed by the Kirby-Bauer disk diffusion method, as recommended by the Clinical and Laboratory Standards institute (CLSI). Briefly, sterile 6 mm blank paper disks (Oxoid, Basingstoke, England) impregnated with 15 μg of each compound were placed on inoculated MH agar plates. A blank disk with DMSO was used as a negative control. MH inoculated plates were incubated for 18-20 hours at 37° C. At the end of the incubation, the inhibition halos where measured. The minimal inhibitory concentration (MIC) was used to determine the antibacterial activity of each compound, in accordance with the recommendations of the CLSI. Two-fold serial dilutions of the compounds were prepared in Mueller-Hinton Broth 2 (MHB2-Sigma-Aldrich, St. Louis, Mo., USA) within the concentration range of 0.062-64 μg/mL. Cefotaxime (CTX) ranging between 0.031-16 μg/mL was used as a control. Sterility and growth controls were included in each assay. Purity check and colony counts of the inoculum suspensions were also performed in order to ensure that the final inoculum density closely approximates the intended number ([…]). The MIC was determined as the lowest concentration at which no visible growth was observed. The minimal bactericidal concentration (MBC) was assessed by spreading 10 μL of culture collected from wells showing no visible growth on MH agar plates. The MBC was determined as the lowest concentration at which no colonies grew after 16-18 hours incubation at 37° C. These assays were performed in duplicate.

The subject of assay [3] is S. aureus 40/61/24. As to the kind of experiment: MIC/MBC broth dilution (CLSI), sensitive clinical isolate. Format: cell-based. The conditions noted are these: Staphylococcus aureus.
From the text: as §1, §2

Assay [4] relates to S. aureus 66/1 (MRSA). The experiment in a line: MIC/MBC broth dilution (CLSI), MRSA. Format: cell-based. Conditions: Staphylococcus aureus.
From the text: as §1, §2

Assay [5] deals with E. faecalis ATCC 29212. As to the kind of experiment: MIC/MBC broth dilution (CLSI), E. faecalis reference strain. Format: cell-based, Enterococcus faecalis.
From the text: as §1, §2

In assay [6] the test system is E. faecalis A5/102 (VRE). As to the kind of experiment: MIC/MBC broth dilution (CLSI), VRE sensitive to ampicillin. It counts as cell-based. Conditions: Enterococcus faecalis.
From the text: as §1, §2

In assay [7] the test system is E. faecalis B3/101 (VRE). The experiment in a line: MIC/MBC broth dilution (CLSI), VRE. It counts as cell-based. Conditions: Enterococcus faecalis.
From the text: as §1, §2

Where [8] appears, read: P. falciparum (3D7), 48 h, read-out: IC50.
Setting [9] is: Enterococcus faecalis, ATCC29212.
The mark [10] stands for this setting: S. aureus 40/61/24, read-out: MIC.
The mark [11] stands for this setting: Enterococcus faecalis, ATCC29212, read-out: MIC.

Converted amounts (≈) assume the structure as drawn. Read-outs that look alike come from different tables or passages of the source.

`CCN(CC)CCCC(C)Nc1ccnc2cc(Cl)ccc12` (centres unmarked) [CQ (6), chloroquine, reference compound] showed a 50% inhibitory concentration (IC50) in assay [1] (3D7) of 15.08 ± 0.08 nM.
Consider `CC(C)[C@@H]1NC(=O)[C@H](Cc2c[nH]c3ccccc23)n2c1nc1ccccc1c2=O` [Compound 10], for which the “antimalarial activity (in words)” value in assay [1] is “inactive”.
With `CC(C)[C@H]1NC(=O)[C@@H](Cc2c[nH]c3ccccc23)n2c1nc1ccccc1c2=O` [Compound 13], the “antimalarial activity (in words)” value in assay [1] is recorded as “decreased activity”. Moreover, the 50% inhibitory concentration (IC50) in assay [1] (setting [8]) worked out at 150 ± 50 nM.
For the molecule `CC(C)C[C@@H]1NC(=O)[C@H](Cc2c[nH]c3ccccc23)n2c1nc1ccccc1c2=O` [Compound 14], in assay [1], the “antimalarial activity (in words)” value is “inactive”.
For the molecule `CC(C)C[C@H]1NC(=O)[C@H](Cc2c[nH]c3ccccc23)n2c1nc1ccccc1c2=O` [Compound 15], the IC50 in assay [1] (setting [8]) is 2000 ± 320 nM.
For `CC(C)C[C@H]1NC(=O)[C@@H](Cc2c[nH]c3ccccc23)n2c1nc1ccccc1c2=O` [Compound 17], the “antimalarial activity (in words)” value in assay [1] was “decreased activity”. For the same molecule, in assay [1] (setting [8]), the half-maximal inhibitory concentration (IC50) amounted to 470 ± 220 nM.
`O=C1N[C@H](Cc2ccc(O)cc2)c2nc3ccccc3c(=O)n2[C@H]1Cc1c[nH]c2ccccc12` [Compound 25]: the IC50 in assay [1] (setting [8]) was 4180 ± 30 nM.
Still for that read-out and setting: next, `C[C@H]1NC(=O)[C@@H](Cc2c[nH]c3ccccc23)n2c1nc1ccccc1c2=O` [Compound 26]: 3680 ± 620 nM.
With `CC(C)[C@@H]1NC(=O)[C@@H](Cc2c[nH]c3ccccc23)n2c1nc1ccc(Cl)cc1c2=O` [Compound 27, (1S, 4R)-4-((1H-indol-3-yl)methyl)-8-chloro-1-isopropyl-1,2-dihydro-6H-pyrazino[2,1-b]quinazoline-3,6(4H)-dione], the “antibacterial (inhibitory) effect (in words)” value in assay [2] and in assay [5] was “inhibitory effect” throughout. Moreover, the MBC in assay [2], in assay [3] (S. aureus 40/61/24), in assay [4], in assay [5] (setting [9]), in assay [6] and in assay [7] was > 64 µg/mL throughout. Also, the MIC in assay [2] is 32 µg/mL (≈ 76 µM); in assay [3] (40/61/24), 64 µg/mL (≈ 152 µM); in assay [4] it was > 64 µg/mL; in assay [5], 64 µg/mL (≈ 152 µM); in assay [5] (setting [9]) it was 32 µg/mL (≈ 76 µM); in assay [6], 64 µg/mL (≈ 152 µM). Moreover, the minimum inhibitory concentration (MIC) in assay [7] was > 64 µg/mL.
As to `CC(C)[C@@H]1NC(=O)[C@@H](Cc2c[nH]c3ccccc23)n2c1nc1c(Cl)cc(Cl)cc1c2=O` [Compound 30, (1S, 4R)-4-((1H -indol-3-yl)methyl)-8,10-dichloro-1-isopropyl-1,2-dihydro-6H-pyrazino[2,1-b]quinazoline-3,6(4H)-dione], the “antibacterial (inhibitory) effect (in words)” value in assay [2] was “inhibitory effect”. Moreover, the MBC in assay [2], in assay [3] (S. aureus 40/61/24), in assay [4] and in assay [5] (setting [9]) was > 64 µg/mL each time. Also, the minimal inhibitory concentration (MIC) is 16 µg/mL (≈ 35.1 µM) in assay [2], > 64 µg/mL in assay [3] (setting [10]), > 64 µg/mL in assay [4] and > 64 µg/mL in assay [5] (setting [11]).
As to `CCC(C)[C@@H]1NC(=O)[C@@H](Cc2c[nH]c3ccccc23)n2c1nc1c(Cl)cc(Cl)cc1c2=O` (stereo partly drawn) [Compound 32, (1S, 4R)-4((1H-indol-3-yl)methyl)-1-((S)-sec-butyl) 8,10-dichloro-1,2-dihydro-6H-pyrazinoi[2,1-b]quinazoline-3,6(4H)-dione], the “antibacterial (inhibitory) effect (in words)” value in assay [2] is given as “inhibitory effect”. The minimal bactericidal concentration (MBC) in assay [2], in assay [3] (S. aureus 40/61/24), in assay [4] and in assay [5] (setting [9]) was > 64 µg/mL throughout. Further, the minimum inhibitory concentration (MIC) was 4 µg/mL (≈ 8.52 µM) in assay [2], 8 µg/mL (≈ 17 µM) in assay [3] (40/61/24), 8 µg/mL (≈ 17 µM) in assay [4] and > 64 µg/mL in assay [5] (setting [11]). The molecule also returned a concentration for half-maximal inhibition (IC50) in assay [1] (3D7, 48 h) of 1510 ± 530 nM.
With `CC(C)C[C@@H]1NC(=O)[C@@H](Cc2c[nH]c3ccccc23)n2c1nc1ccc(I)cc1c2=O` [Compound 35, (1S,4R)-4-((1H-indol-3-yl)methyl)-8-iodo-1-isobutyl-1,2-dihydro-6H-pyrazino[2,1-b]quinazoline-3,6(4H)-dione], the “antibacterial (inhibitory) effect (in words)” value in assay [2] was “inhibitory effect”. Further, the minimum bactericidal concentration (MBC) in assay [2], in assay [3] (S. aureus 40/61/24), in assay [4] and in assay [5] (setting [9]) was > 64 µg/mL throughout. Besides, the MIC in assay [2] was 16 µg/mL (≈ 30.4 µM); in assay [3] (setting [10]), 64 µg/mL (≈ 122 µM); in assay [4] it was > 64 µg/mL; in assay [5] (setting [11]), > 64 µg/mL.
As for `CC(C)C[C@@H]1NC(=O)[C@@H](Cc2c[nH]c3ccccc23)n2c1nc1ccc(Br)cc1c2=O` [Compound 36, (1s,4R)-4-((1H-indol-3-yl)methyl)-8-bromo-1-isobutyl-1,2-dihydro-6H-pyrazino[2,1-b]quinazoline-3,6(4H)-dione], the “antibacterial (inhibitory) effect (in words)” value in assay [2] was “inhibitory effect”. The minimum bactericidal concentration (MBC) in assay [2], in assay [3] (S. aureus 40/61/24), in assay [4] and in assay [5] (setting [9]) was > 64 µg/mL in each case. Further, the MIC was 16 µg/mL (≈ 33.4 µM) in assay [2], > 64 µg/mL in assay [3] (setting [10]), > 64 µg/mL in assay [4] and > 64 µg/mL in assay [5] (setting [11]).
With `O=C1N[C@@H](Cc2ccc(OCc3ccccc3)cc2)c2nc3c(Cl)cc(Cl)cc3c(=O)n2[C@@H]1Cc1c[nH]c2ccccc12` [Compound 38], in assay [1] (3D7, 48 h), the half-maximal inhibitory concentration (IC50) is 4000 ± 20 nM.
Regarding `CC(C)C[C@@H]1NC(=O)[C@@H](Cc2c[nH]c3ccccc23)n2c1nc1ccc(O)cc1c2=O` [Compound 39], the IC50 in assay [1] (setting [8]) turned out to be 730 ± 70 nM.
On the same count and under the same terms, for `CC(C)C[C@@H]1NC(=O)[C@@H](Cc2c[nH]c3ccccc23)n2c1nc1cnccc1c2=O` [Compound 42, (1S,4R)-4-((1H-indol-3-yl)methyl)-1-isobutyl-1,2-dihydro-6H-pyrazino[1,2-α]pyrido[3,4-d]pyrimidine-3,6(4H)-dione] the value was 4000 ± 20 nM; for `CC(C)C[C@@H]1NC(=O)[C@@H](Cc2c[nH]c3ccccc23)n2c1nc1ncccc1c2=O` [Compound 43], 3760 nM.
As for `CC(C)C[C@@H]1NC(=O)[C@@H](Cc2cc3ccccc3[nH]2)n2c1nc1cc(-c3nnnn3C)ccc1c2=O` [Compound 44, (1S,4R)-4-((1H-indol-2-yl)methyl)-1-isobutyl-9-(1-methyl-1H-tetrazol-5-yl)-1,2-dihydro-6H-pyrazino [2,1-b]quinazoline-3,6(4H)-dione], in assay [1], the “antimalarial activity (in words)” value was “weak activity”. For the same molecule, the half-inhibitory concentration (IC50) in assay [1] (setting [8]) was 1020 ± 270 nM.

The values are drawn from patent US20220274987A1, “PYRAZINO [1,2-B]QUINAZOLINE-3,6-DIONES DERIVATIVES, THEIR PRODUCTION AND USES THEREOF” (CIIMAR -CENTRO INTERDISCIPLINAR DE INVESTIGAÇÃO MARINHA E …, priority 2019, published 2022).
